In PubChem BioAssay AID1963433 (Molecular Pharmacology Branch, DTP, NCI, 2024):

Test system: 772245-204-R-J1-PDC complex spheroid growth
Test: Anticancer human tumor 772245-204-R-J1-PDC patient-derived rhabdomyosarcoma cell line growth inhibition [Asc]
Settings: for IC50: curve of first compound; for viability, T/C: stronger effect = lower value
In short: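 Complex spheroids combining tumor cells with HUVEC endothelial cells and human MSCs, at 37 degrees C, 5% CO2; agents tested alone or combined, half-log dilutions from at or near clinical Cmax, or 10 microM if Cmax unknown.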
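Note: compound exposure lasted seven days.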
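Throughout, for viability, T/C: 100% = DMSO vehicle control viability.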

## NC(=O)C(=Cn1cnc(-c2cc(C(F)(F)F)cc(C(F)(F)F)c2)n1)c1cncnc1 + CCN1C(C(=O)NC23CCC(C(=O)O)(CC2)CC3)C(c2cccc(Cl)c2F)C2(C(=O)Nc3cc(Cl)ccc32)C12CCCCC2
Second compound 0.03 µM
  IC50: 75.5 nM
Second compound 0.0949 µM
  IC50: 27.3 nM
Second compound 0.3 µM
  IC50: 47.3 nM
Second compound 0.949 µM
  IC50: 28.2 nM
Second compound 3 µM
  IC50: 14.5 nM
Second compound 0.03 µM, first compound 0.000949 µM
  viability, T/C: 88.9%
Second compound 0.03 µM, first compound 0.003 µM
  viability, T/C: 96.5%
Second compound 0.03 µM, first compound 0.00949 µM
  viability, T/C: 97.1%
Second compound 0.03 µM, first compound 0.03 µM
  viability, T/C: 92.4%
Second compound 0.03 µM, first compound 0.0949 µM
  viability, T/C: 38.5%
Second compound 0.03 µM, first compound 0.3 µM
  viability, T/C: 40.5%
Second compound 0.0949 µM, first compound 0.000949 µM
  viability, T/C: 103%
Second compound 0.0949 µM, first compound 0.003 µM
  viability, T/C: 93.1%
Second compound 0.0949 µM, first compound 0.00949 µM
  viability, T/C: 88.5%
Second compound 0.0949 µM, first compound 0.03 µM
  viability, T/C: 44.5%
Second compound 0.0949 µM, first compound 0.0949 µM
  viability, T/C: 37.2%
Second compound 0.0949 µM, first compound 0.3 µM
  viability, T/C: 22.6%
Second compound 0.3 µM, first compound 0.000949 µM
  viability, T/C: 94.7%
Second compound 0.3 µM, first compound 0.003 µM
  viability, T/C: 105%
Second compound 0.3 µM, first compound 0.00949 µM
  viability, T/C: 85.2%
Second compound 0.3 µM, first compound 0.03 µM
  viability, T/C: 62.8%
Second compound 0.3 µM, first compound 0.0949 µM
  viability, T/C: 31.1%
Second compound 0.3 µM, first compound 0.3 µM
  viability, T/C: 30.4%
Second compound 0.949 µM, first compound 0.000949 µM
  viability, T/C: 92.8%
Second compound 0.949 µM, first compound 0.003 µM
  viability, T/C: 88.8%
Second compound 0.949 µM, first compound 0.00949 µM
  viability, T/C: 84.7%
Second compound 0.949 µM, first compound 0.03 µM
  viability, T/C: 46.4%
Second compound 0.949 µM, first compound 0.0949 µM
  viability, T/C: 28.8%
Second compound 0.949 µM, first compound 0.3 µM
  viability, T/C: 18.1%
Second compound 3 µM, first compound 0.000949 µM
  viability, T/C: 69.9%
Second compound 3 µM, first compound 0.003 µM
  viability, T/C: 66.9%
Second compound 3 µM, first compound 0.00949 µM
  viability, T/C: 69.5%
Second compound 3 µM, first compound 0.03 µM
  viability, T/C: 17.7%
Second compound 3 µM, first compound 0.0949 µM
  viability, T/C: 10.8%
Second compound 3 µM, first compound 0.3 µM
  viability, T/C: 15.9%
